Experimental data from article PMC9182104 (Molecules, 2022).
Where “and” joins values, the source holds several entries; their conditions need not be identical. Identical values can stand only once. Like-named read-outs stand apart in the source and are kept apart here.

Key:
PDE5A = PDE5A (Homo sapiens, UniProt O76074); assay: Enzymatic assay of PDE5A (3H-cGMP substrate); type: biochemical; conditions: for inhibition at 0.1 µM / inhibition at 0.5 µM: 0.25 h; for IC50: PDE5, mean ± SD of three independent experiments
[1] = Rat liver microsomal stability; type: in vitro ADME; conditions: rat liver microsomes, compound 0.5 μM; read-out: T1/2 in RLM
[2] = cited from earlier work
[3] = test system: fibrosis markers α-SMA and FN; design: method as in earlier work; conditions: rat, bleomycin-induced pulmonary fibrosis; cited from earlier work
[4] = PDE5, compound at 0.1 μM, read-out: Inhibition Ratio (%) 0.1 μM
[5] = PDE5, compound at 0.5 μM, read-out: Inhibition Ratio (%) 0.5 μM

inhibition at 0.1 µM (PDE5A; [4]) [%] | inhibition at 0.5 µM (PDE5A; [5]) [%] | IC50 (PDE5A) | SMILES | also measured
0 | 7 |  | OCC1CCCN(c2nc(N3CCC(F)CC3)c3nc(N4CCCC(CO)C4)nc(N4CCC(F)CC4)c3n2)C1 (stereo not shown) [6b, ((4,8-bis(4-fluoropiperidin-1-yl)pyrimido[5,4-d]pyrimidine-2,6-diyl)bis(piperidine-1,3-diyl))dimethanol] | 
14 | 60 | 478 ± 3 nM | CC1CCCN1c1nc(N(CCO)CCO)nc2c(N3CCCC3C)nc(N(CCO)CCO)nc12 (stereo not shown) [4f, 2,2′,2″,2‴-((4,8-bis(2-methylpyrrolidin-1-yl)pyrimido[5,4-d]pyrimidine-2,6-diyl)bis(azanetriyl))tetrakis(ethan-1-ol)] | 
60 | 93 | 113 nM and 64 nM | OCCN(CCO)c1nc(N2CCSC2)c2nc(N(CCO)CCO)nc(N3CCSC3)c2n1 [4g, 2,2′,2″,2‴-((4,8-di(thiazolidin-3-yl)pyrimido[5,4-d]pyrimidine-2,6-diyl)bis(azanetriyl))tetrakis(ethan-1-ol)] | half-life at 0.5 μM [1]: 5 min
0 | 40 | > 500 nM | OCCN(CCO)c1nc(N2CCOCC2)c2nc(N(CCO)CCO)nc(N3CCOCC3)c2n1 [4a, 2,2′,2″,2‴-((4,8-dimorpholinopyrimido[5,4-d]pyrimidine-2,6-diyl)bis(azanetriyl))tetrakis(ethan-1-ol)] | 
41 | 72 | 362 ± 81 nM | OCCN(CCO)c1nc(N2CCC(F)(F)CC2)c2nc(N(CCO)CCO)nc(N3CCC(F)(F)CC3)c2n1 [4d, 2,2′,2″,2‴-((4,8-bis(4,4-difluoropiperidin-1-yl)pyrimido[5,4-d]pyrimidine-2,6-diyl)bis(azanetriyl))tetrakis(ethan-1-ol)] | half-life at 0.5 μM [1]: 19 min
5 | 20 |  | OC1CCN(c2nc(N3CCC(F)CC3)c3nc(N4CCC(O)C4)nc(N4CCC(F)CC4)c3n2)C1 (stereo not shown) [6c, 1,1′-(4,8-bis(4-fluoropiperidin-1-yl)pyrimido[5,4-d]pyrimidine-2,6-diyl)bis(pyrrolidin-3-ol)] | 
24 | 61 | 353 ± 57 nM | OCCN(CCO)c1nc(N2CCC(F)(F)C2)c2nc(N(CCO)CCO)nc(N3CCC(F)(F)C3)c2n1 [4i, 2,2′,2″,2‴-((4,8-bis(3,3-difluoropyrrolidin-1-yl)pyrimido[5,4-d]pyrimidine-2,6-diyl)bis(azanetriyl))tetrakis(ethan-1-ol)] | 
7 | 48 |  | OC1CCCN(c2nc(N3CCC(F)CC3)c3nc(N4CCCC(O)C4)nc(N4CCC(F)CC4)c3n2)C1 (stereo not shown) [6a, 1,1′-(4,8-bis(4-fluoropiperidin-1-yl)pyrimido[5,4-d]pyrimidine-2,6-diyl)bis(piperidin-3-ol)] | 
52 | 79 | 167 ± 41 nM | OCC1CCCN(c2nc(N3CCSC3)c3nc(N4CCCC(CO)C4)nc(N4CCSC4)c3n2)C1 (stereo not shown) [5b, ((4,8-di(thiazolidin-3-yl)pyrimido[5,4-d]pyrimidine-2,6-diyl)bis(piperidine-1,3-diyl))dimethanol] | 
45 | 91 | 100 ± 1 nM | OCCN(CCO)c1nc(N2CCSC2)c2nc(N(CCO)CCO)nc(N3CCSCC3)c2n1 [9a, 2,2′,2″,2‴-((4-(thiazolidin-3-yl)-8-thiomorpholinopyrimido[5,4-d]pyrimidine-2,6-diyl)bis(azanetriyl))tetrakis(ethan-1-ol)] | half-life at 0.5 μM [1]: 4 min
33 | 81 | 94 ± 9 nM | OCCN(CCO)c1nc(N2CC[C@H](F)C2)c2nc(N(CCO)CCO)nc(N3CCSC3)c2n1 [9b, (S)-2,2′,2″,2‴-((4-(3-fluoropyrrolidin-1-yl)-8-(thiazolidin-3-yl)pyrimido[5,4-d]pyrimidine-2,6-diyl)bis(azanetriyl))tetrakis(ethan-1-ol)] | half-life at 0.5 μM [1]: 10 min
7 | < 50 |  | OCCN(CCO)c1nc(N2CCCC2)c2nc(N(CCO)CCO)nc(N3CCCC3)c2n1 [4e, 2,2′,2″,2‴-((4,8-di(pyrrolidin-1-yl)pyrimido[5,4-d]pyrimidine-2,6-diyl)bis(azanetriyl))tetrakis(ethan-1-ol)] | 
29 | 32 |  | OC1CCN(c2nc(N3CCSC3)c3nc(N4CCC(O)CC4)nc(N4CCSC4)c3n2)CC1 [5a, 1,1′-(4,8-di(thiazolidin-3-yl)pyrimido[5,4-d]pyrimidine-2,6-diyl)bis(piperidin-4-ol)] | 
31 | 62 | 343 ± 18 nM | OCCN(CCO)c1nc(N2CCC(F)CC2)c2nc(N(CCO)CCO)nc(N3CCC(F)CC3)c2n1 [4c, 2,2′,2″,2‴-((4,8-bis(4-fluoropiperidin-1-yl)pyrimido[5,4-d]pyrimidine-2,6-diyl)bis(azanetriyl))tetrakis(ethan-1-ol)] | half-life at 0.5 μM [1]: 44 min
53 | 75 | 64 nM and 113 nM | OCCN(CCO)c1nc(N2CCSCC2)c2nc(N(CCO)CCO)nc(N3CCSCC3)c2n1 [4b, 2,2′,2″,2‴-((4,8-dithiomorpholinopyrimido[5,4-d]pyrimidine-2,6-diyl)bis(azanetriyl))tetrakis(ethan-1-ol)] | half-life at 0.5 μM [1]: 7 min

Second part, the molecule before the results:

SMILES | inhibition at 0.1 µM (PDE5A; [4]) [%] | inhibition at 0.5 µM (PDE5A; [5]) [%] | IC50 (PDE5A) | also measured
O[C@@H]1CCN(c2nc(N3CCSC3)c3nc(N4CC[C@@H](O)C4)nc(N4CCSC4)c3n2)C1 [(R)-5c, (3R,3′R)-1,1′-(4,8-di(thiazolidin-3-yl)pyrimido[5,4-d]pyrimidine-2,6-diyl)bis(pyrrolidin-3-ol)] | 45 | 74 | 198 ± 45 nM | 
C[C@H]1CCCN1c1nc(N(CCO)CCO)nc2c(N3CCC[C@@H]3C)nc(N(CCO)CCO)nc12 [(R)-4f, 2,2′,2″,2‴-((4,8-bis((S)-2-methylpyrrolidin-1-yl)pyrimido[5,4-d]pyrimidine-2,6-diyl)bis(azanetriyl))tetrakis(ethan-1-ol)] |  |  |  | Inhibition Ratio (%) 0.1 μM (PDE5A; PDE5, compound at 0.1 μM): 27%; Inhibition Ratio (%) 0.5 μM (PDE5A; PDE5, compound at 0.5 μM): 44%
OC[C@@H]1CCCN(c2nc(N3CCSC3)c3nc(N4CCC[C@@H](CO)C4)nc(N4CCSC4)c3n2)C1 [(R)-5b, ((3R,3′R)-(4,8-di(thiazolidin-3-yl)pyrimido[5,4-d]pyrimidine-2,6-diyl)bis(piperidine-1,3-diyl))dimethanol] |  |  | 109 ± 20 nM | 
OCCN(CCO)c1nc(N2CC[C@H](F)C2)c2nc(N(CCO)CCO)nc(N3CC[C@H](F)C3)c2n1 [(S)-4h, 2,2′,2″,2‴-((4,8-bis((S)-3-fluoropyrrolidin-1-yl)pyrimido[5,4-d]pyrimidine-2,6-diyl)bis(azanetriyl))tetrakis(ethan-1-ol)] | 34 | 55 | 332 ± 56 nM | half-life at 0.5 μM [1]: 67 min
O[C@H]1CCN(c2nc(N3CCSC3)c3nc(N4CC[C@H](O)C4)nc(N4CCSC4)c3n2)C1 [(S)-5c, (3S,3′S)-1,1′-(4,8-di(thiazolidin-3-yl)pyrimido[5,4-d]pyrimidine-2,6-diyl)bis(pyrrolidin-3-ol)] | 36 | 49 |  | 
OCCN(CCO)c1nc(N2CCCCC2)c2nc(N(CCO)CCO)nc(N3CCCCC3)c2n1 [DIP, Dipyridamole, reference compound] |  |  |  | solubility in water [2]: practically insoluble in water; levels of fibrosis markers α-SMA and FN [3]: significantly decreased; inhibition at 0.1 µM (PDE5A; read-out: Inhibition Ratio (%) 0.1 μM, PDE5, compound at 0.1 μM): 17%; inhibition at 0.5 µM (PDE5A; read-out: Inhibition Ratio (%) 0.5 μM, PDE5, compound at 0.5 μM): 84%
OCCN(CCO)c1nc(N2CC[C@@H](F)C2)c2nc(N(CCO)CCO)nc(N3CC[C@@H](F)C3)c2n1 [(R)-4h, 2,2′,2″,2‴-((4,8-bis((R)-3-fluoropyrrolidin-1-yl)pyrimido[5,4-d]pyrimidine-2,6-diyl)bis(azanetriyl))tetrakis(ethan-1-ol)] | 27 | 44 |  | 
OC[C@H]1CCCN(c2nc(N3CCSC3)c3nc(N4CCC[C@H](CO)C4)nc(N4CCSC4)c3n2)C1 [(S)-5b, ((3S,3′S)-(4,8-di(thiazolidin-3-yl)pyrimido[5,4-d]pyrimidine-2,6-diyl)bis(piperidine-1,3-diyl))dimethanol] | 13 | 34 |  | 
O[C@@H]1CCCN(c2nc(N3CCC(F)CC3)c3nc(N4CCC[C@@H](O)C4)nc(N4CCC(F)CC4)c3n2)C1 [(R)-6a, (3R,3′R)-1,1′-(4,8-bis(4-fluoropiperidin-1-yl)pyrimido[5,4-d]pyrimidine-2,6-diyl)bis(piperidin-3-ol)] | 8 | 36 |  | 
C[C@H]1CCCN1c1nc(N(CCO)CCO)nc2c(N3CCC[C@@H]3C)nc(N(CCO)CCO)nc12 [(S)-4f, 2,2′,2″,2‴-((4,8-bis((S)-2-methylpyrrolidin-1-yl)pyrimido[5,4-d]pyrimidine-2,6-diyl)bis(azanetriyl))tetrakis(ethan-1-ol)] | 16 | 42 |  | 
